Reference: ChEMBL document CHEMBL1124487, “Acid-sensitive latent inhibitors for proteolytic enzymes: synthesis and characterization” (J Med Chem, 1989)

Columns and labels:
Papain [1] = target: T1, Papain (Carica papaya, UniProt P00784); test: Inhibition of papain-catalyzed hydrolysis of BzArg p-nitroanilide by compound at pH 5
T1 sequence (P00784 whole entry): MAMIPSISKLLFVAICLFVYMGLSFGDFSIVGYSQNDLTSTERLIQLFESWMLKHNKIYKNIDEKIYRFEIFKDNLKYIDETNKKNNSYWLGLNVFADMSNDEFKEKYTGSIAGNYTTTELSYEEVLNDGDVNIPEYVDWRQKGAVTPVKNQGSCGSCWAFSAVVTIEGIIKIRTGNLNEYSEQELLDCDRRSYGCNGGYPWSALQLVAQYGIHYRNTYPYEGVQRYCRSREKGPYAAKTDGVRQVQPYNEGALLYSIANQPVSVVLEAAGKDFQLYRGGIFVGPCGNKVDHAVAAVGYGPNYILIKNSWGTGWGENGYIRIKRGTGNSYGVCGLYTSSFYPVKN

Papain [2] = target: T1, Papain; test: Inhibition of papain-catalyzed hydrolysis of BzArg p-nitroanilide by compound at pH 5.5
Papain (Carica papaya) = target: T2, Papain (Carica papaya) (UniProt P00784)
T2 sequence (whole entry): T1 sequence (P00784 whole entry)
Description: Initial rate of reaction between papain and BzArg p-nitro-anilide in the presence of 400 uM at pH 7

Papain [3] = target: T1, Papain; test: Inhibition of papain-catalyzed hydrolysis of BzArg p-nitroanilide by compound at pH 7

Ki (Papain [1]): 38 µM
Ki (Papain [2]): 25 µM
Kix (Papain (Carica papaya)): 1 mM
Ki (Papain [3]): 30 µM
SMILES: CC(=O)N[C@@H](C)C(=O)N/N=C/CNC(=O)c1ccccc1
